Several values for one entry are separate records, joined by “and”; a condition that tells them apart may be missing. Identical values can stand only once. Ends that are not written are not given here.

The text below walks through data of paper PMC11345766, “Computational Design of Pore-Forming Peptides with Potent Antimicrobial and Anticancer Activities” (Journal of Medicinal Chemistry, 2024).

Experiment [1] can be described thus: Calcein dye leakage assay from LUVs. The format is biochemical. To be noted: P:L 1:100; pH 7.4. In short, it runs like this: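 POPC:POPG (1:1) LUVs, extruded at 100 nm, loaded with 35 mM self-quenching calcein; free dye removed. Peptide 0.1 mM and LUVs 0.02 mM in PBS with 100 mM NaCl, P:L 1:100 to 1:10. Fluorescence at 495/520 nm, normalized to 100% leakage by 10% Triton X-100.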

Experiment [2] has as its system S. carnosus (CCM 4838T). The experiment in a line: microbe, parasite or virus in culture. The format is cell-based, Staphylococcus carnosus. Conditions: CCM 4838, 24 h; read-out: Antimicrobial activity (MIC) S. carnosus (CCM 4838T). Summed up: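 Bacteria were grown on MHA for 24 h, subcultured in MHB for 6 h at 37 °C and diluted to 10^6 CFU/mL. Compounds were serially diluted from 50 to 0.1 μM, inoculated and incubated for 24 h at 37 °C. MIC was the lowest concentration with no visible turbidity.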

The subject of experiment [3] is A. baumannii (ATCC 19606). The experiment is described as follows: Neutropenic murine deep thigh infection model. The format is in vivo, mouse. To be noted: single intraperitoneal dose at 10 times the MIC; four days after treatment. From the text: Mice were euthanized 4 days postinfection (day 8).
Each experimental group comprised three mice.

The subject of experiment [4] is cytoplasmic membranes of ESKAPEE pathogens. The experiment is described as follows: Cytoplasmic membrane depolarization assay, DiSC3-(5). Format: cell-based. To be noted: both Gram-negative and Gram-positive bacteria; peptides at their MICs. The method, then:
First, we investigated the ability of the peptides to depolarize the cytoplasmic membranes of ESKAPEE pathogens. […] Bacteria were incubated with 3,3′-dipropylthiadicarbocyanine iodide [DiSC3-(5)] dye, and the dye fluorescence was measured after peptide treatment. DiSC3-(5) is sensitive to transmembrane potential changes. It accumulates in the cytoplasmic membrane with quenched fluorescence, and when the membrane potential becomes unbalanced, the dye molecules translocate to the outside environment, resulting in increased fluorescence.[56] The three potent AMPs (LP1, LP18, and LP28) and the H-variant (LP40) depolarized the cytoplasmic membrane of both Gram-negative and Gram-positive bacteria at their MICs.
The cytoplasmic membrane depolarization activity of the peptides was determined by measuring the fluorescence of membrane-potential-sensitive dye DiSC3-(5). A. baumannii ATCC 19606, E. coli ATCC 11775, K. pneumoniae ATCC 13883, P. aeruginosa PAO1, S. aureus ATCC 12600, and E. faecium ATCC 700221 were grown to mid log phase (OD600 = 0.5) at 37 °C and then centrifuged (10,000 rpm at 4 °C for 10 min). Cells were washed twice with a buffer containing 20 mM glucose and 5 mM HEPES (pH 7.2) and diluted 1:10 (OD600 = 0.05) in a buffer with 0.1 M KCl, […], and 5 mM HEPES (pH 7.2). Fluorescence was recorded at the excitation and emission wavelengths of 622 and 670 nm, respectively. Bacterial solution (100 μL) was incubated for 15 min with 20 nM of DiSC3-(5) until fluorescence reached a plateau. Changes in transmembrane potential were monitored by observing the difference in fluorescence emission intensity after adding peptides (100 μL at their MICs) for 45 min. Assay was performed in triplicate.

In experiment [5] the test system is E. faecium ATCC 19434T (WT). To be noted: E. faecium / ATCC 19434T / WT / Prot. b; Prot. b.
The subject of experiment [6] is E. faecium ATCC 700221 (VAN, TEI). To be noted: E. faecium / ATCC 700221 / VAN, TEI / Prot. d; Prot. d.
In experiment [7] the test system is E. faecium BM4147 (AMX, VAN). To be noted: E. faecium / BM4147 / AMX, VAN / Prot. b; Prot. b.
Experiment [8] concerns K. pneumoniae ATCC 700603 (ESBL). Conditions: K. pneumoniae / ATCC 700603 / ESBL / Prot. a; Prot. a.
The subject of experiment [9] is K. pneumoniae E1267 (GEN, AMI). Conditions: K. pneumoniae / E1267 / GEN, AMI / Prot. c; Prot. c.
Experiment [10] concerns P. aeruginosa K12 (AMI, IMI, MER, CTZ, PIT). To be noted: P. aeruginosa / K12 / AMI, IMI, MER, CTZ, PIT / Prot. c; Prot. c.
Experiment [11] concerns P. aeruginosa PA01 (WT). To be noted: P. aeruginosa / PA01 / WT / Prot. d; Prot. d.
Experiment [12] has as its system S. aureus ATCC BAA-1556 (MET). Conditions: S. aureus / ATCC BAA-1556 / MET / Prot. d; Prot. d.

Consider “H-HHHHLKKILKKLFQFINQLDNQLQDIHHHH-OH [LP40]”, for which, in experiment [1], the “Calcein leakage (%) from LUVs at P:L 1:100 (mol/mol)” value is recorded as 102.5 ± 1.2%. Also, the MIC in experiment [2] is given as more than 50 µM. The “Reduction of bacterial load” value in [3] is “did not significantly reduce the bacterial load”. For the same substance, the “Depolarization of the cytoplasmic membrane” value (“Depolarization” for short) in experiment [4] is on record as “depolarized”.
As for “KKKKLKKILKKLFQFINQLDNQLQDIKKKK-NH2 [LP18]”, the MIC in experiment [5] was 15 µM; in experiment [6], more than 60 µM; in [7], 4 µM; in [8], 4 µM; in experiment [9] it was more than 32 µM; in [10], more than 32 µM. The MIC is 3.1 µM in experiment [11], more than 60 µM in experiment [12] and 0.2 µM in experiment [2]. The “Calcein leakage (%) from LUVs at P:L 1:100 (mol/mol)” value in experiment [1] is recorded as 93.7 ± 3.1%. Besides, in [3], the “Reduction of bacterial load” value is “did not significantly reduce the bacterial load”. The “Depolarization” value in [4] is “depolarized”.
With “KKKKLKKILKKLFQFINQLDNQLQDIKQNK-NH2 [LP1]”, the MIC was more than 32 µM in experiment [5]; 12.5 µM in [6]; 16 µM in experiment [7]; 4 µM in experiment [8]; more than 32 µM in [9]; more than 32 µM in experiment [10]. The MIC was 3.1 µM in experiment [11], more than 60 µM in [12] and 0.8 µM in [2]. In [1], the “Calcein leakage (%) from LUVs at P:L 1:100 (mol/mol)” value was 87% and 87.1 ± 2.7%. Also, the “Reduction of bacterial load” value in experiment [3] was “two to three orders of magnitude”. For the same substance, the “Depolarization” value in experiment [4] is recorded as “depolarized”.
